Here are results for 17 molecules from patent US8481531B2, “Bicyclic heterocyclyl derivatives as FGFR kinase inhibitors for therapeutic use” (Astex Therapeutics Ltd, priority 2009, dated 2013).

In one assay the target is T1, FGFR3 (Homo sapiens, UniProt P22607).
T1 construct: purchased Upstate
Description: FGFR3 in vitro kinase inhibitory activity assay (TRF). The following applies: 8 μM ATP, 3 hours; read-out: FGFR3 IC50(μM) or % I. The format is biochemical. The method, then:
(§1) FGFR3, VEGFR2 and PDGFR in vitro Kinase Inhibitory Activity Assays
(§2) Enzymes (from Upstate), prepared at 2× final concentration, were incubated with test compounds, biotinylated Flt3 substrate (biotin-VASSDNEYFYVDF) (Cell Signalling Technology Inc.) and ATP in the appropriate assay buffer (Table 1). The reaction was allowed to proceed for 3 hours (FGFR3), 1 hour (VEGFR2, PDGFR-beta) at room temperature on a plate shaker at 700 rpm before being stopped with 35 mM EDTA, pH 8 (FGFR3, VEGFR2) or 55 mM EDTA, pH 8 (PDGFR-beta). 5× detection mix (50 mM HEPES pH 7.5, 0.1% BSA, 11.34 nM Eu-anti-pY (PY20) (PerkinElmer) 74 nM SA-XL665 (Cisbio) for FGFR3, 50 mM HEPES, pH 7.5, 0.1% BSA, 11.34 nM Eu-anti-pY (PY20), 187.5 nM SA-XL665 for VEGFR2 and 50 mM HEPES, pH 7.5, 0.1% BSA, 11.34 nM Eu-anti-pY (PT66) (PerkinElmer), 375 nM SA-XL665 (Cisbio) for PDGFR-beta) was then added to each well and the plate sealed and incubated at room temperature for one hour on a plate shaker at 700 rpm. The plate was then read on a Packard Fusion plate reader or a BMG Pherastar both in TRF mode.

Another assay concerns the target T2, VEGFR2 (Homo sapiens, UniProt P35968).
T2 construct: purchased Upstate
Description: VEGFR2 in vitro kinase inhibitory activity assay (TRF). The format is biochemical. The following applies: 0.5 μM ATP, 1 hour; read-out: VEGFR2 IC50(μM) or % I. The method, then: as §1, §2

Assay [1] has as its system parental wild-type Ba/F3 cells. Description: Ba/F3 (WT) cell proliferation assay (Alamar Blue). The format is cell-based. The following applies: BaF3, 72 hours, read-out: BaF3 WT prolif; for IC50: with mouse IL-3. The method, then:
(§3) Ba/F3-TEL-FGFR3 & Ba/F3 (WT) Cell Proliferation Assays
(§4) Stably transfected Ba/F3-TEL-FGFR3 cells were plated out into black 96-well tissue culture plates with clear bottoms in RPMI medium containing 10% FBS and 0.25 mg/ml G418 at a density of 5×10^3 cells/well (200 μl per well). The parental wild-type Ba/F3 cells (DSMZ no.: ACC 300) were plated out into black 96-well tissue culture plates with clear bottoms in RPMI medium containing 10% FBS and 2 ng/ml mouse IL-3 (R&D Systems) at a density of 2.5×10^3 cells/well (200 μl per well). Plates were placed in an incubator overnight before adding the compounds the following day. Dilutions of compounds were made in DMSO starting at 10 mM and were diluted into the wells to give a final DMSO concentration of 0.1% in assay. Compounds were left on the cells for 72 hours before the plates were removed from the incubator and 20 μl of Alamar Blue™ (Biosource) was added to each well. Plates were placed in the incubator for 4-6 hours before reading plates at 535 nm (excitation)/590 nm (emission) on a Fusion plate reader (Packard). Where inhibition is high an IC50 can be determined.
A general note: Resazurin is reduced to fluorescent resorufin, in cell work by metabolically active cells.

A further assay has as its target T3, Ba/F3-TEL-FGFR3 cells (Homo sapiens, UniProt P22607).
T3 construct: fused on or other part: P41212 (Transcription factor ETV6)
Description: Ba/F3-TEL-FGFR3 cell proliferation assay (Alamar Blue). The format is cell-based. To be noted: 72 hours; for GI50: read-out: BaF3-TEL-FGFR3 prolif; for BaF3-TEL-FGFR3 prolif (μM): % at 10.0 μM. The method, then:
as §3, §4

T3 sequence (P22607 whole entry, change not shown, the tested form may be a part): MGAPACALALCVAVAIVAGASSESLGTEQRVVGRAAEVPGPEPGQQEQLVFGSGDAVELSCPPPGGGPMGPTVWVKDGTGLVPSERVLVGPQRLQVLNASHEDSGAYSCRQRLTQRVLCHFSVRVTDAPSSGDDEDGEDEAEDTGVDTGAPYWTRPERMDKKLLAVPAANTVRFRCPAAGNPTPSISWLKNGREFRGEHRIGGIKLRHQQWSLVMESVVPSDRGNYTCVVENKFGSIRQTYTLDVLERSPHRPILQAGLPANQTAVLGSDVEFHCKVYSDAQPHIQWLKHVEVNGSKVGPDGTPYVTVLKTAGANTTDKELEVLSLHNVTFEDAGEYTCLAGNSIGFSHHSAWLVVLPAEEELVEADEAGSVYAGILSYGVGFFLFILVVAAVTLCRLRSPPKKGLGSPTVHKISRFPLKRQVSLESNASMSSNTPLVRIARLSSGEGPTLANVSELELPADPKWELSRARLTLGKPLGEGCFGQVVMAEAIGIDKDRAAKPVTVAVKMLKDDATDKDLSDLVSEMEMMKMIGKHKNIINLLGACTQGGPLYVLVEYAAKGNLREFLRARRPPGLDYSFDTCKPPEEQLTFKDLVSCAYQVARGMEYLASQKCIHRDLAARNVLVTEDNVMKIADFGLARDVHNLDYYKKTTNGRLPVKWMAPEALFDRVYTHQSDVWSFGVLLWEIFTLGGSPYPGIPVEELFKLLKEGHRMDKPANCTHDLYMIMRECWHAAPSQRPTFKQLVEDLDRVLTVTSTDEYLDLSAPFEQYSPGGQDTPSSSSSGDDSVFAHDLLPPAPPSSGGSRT
T1 sequence (P22607 23-806): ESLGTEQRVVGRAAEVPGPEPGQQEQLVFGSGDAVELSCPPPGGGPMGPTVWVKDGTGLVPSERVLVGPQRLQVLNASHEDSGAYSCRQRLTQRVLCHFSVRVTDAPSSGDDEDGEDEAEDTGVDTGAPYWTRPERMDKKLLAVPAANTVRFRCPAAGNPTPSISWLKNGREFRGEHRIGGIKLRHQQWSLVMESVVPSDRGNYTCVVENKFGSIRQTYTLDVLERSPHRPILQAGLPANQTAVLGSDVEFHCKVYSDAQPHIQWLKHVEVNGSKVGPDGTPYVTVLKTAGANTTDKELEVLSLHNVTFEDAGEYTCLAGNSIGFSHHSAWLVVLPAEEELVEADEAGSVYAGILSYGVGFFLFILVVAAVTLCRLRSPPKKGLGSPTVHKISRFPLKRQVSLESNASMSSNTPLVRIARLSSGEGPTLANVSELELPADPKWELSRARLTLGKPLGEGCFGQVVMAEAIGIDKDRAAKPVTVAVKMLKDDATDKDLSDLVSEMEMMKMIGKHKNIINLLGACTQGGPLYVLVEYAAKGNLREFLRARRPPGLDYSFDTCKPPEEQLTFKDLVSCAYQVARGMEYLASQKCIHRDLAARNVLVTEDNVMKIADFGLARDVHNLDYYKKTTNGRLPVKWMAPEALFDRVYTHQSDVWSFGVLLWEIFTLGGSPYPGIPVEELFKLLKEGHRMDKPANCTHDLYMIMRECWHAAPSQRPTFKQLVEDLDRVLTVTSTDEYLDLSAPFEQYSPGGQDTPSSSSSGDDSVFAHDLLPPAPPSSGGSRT
T2 sequence (P35968 20-1356): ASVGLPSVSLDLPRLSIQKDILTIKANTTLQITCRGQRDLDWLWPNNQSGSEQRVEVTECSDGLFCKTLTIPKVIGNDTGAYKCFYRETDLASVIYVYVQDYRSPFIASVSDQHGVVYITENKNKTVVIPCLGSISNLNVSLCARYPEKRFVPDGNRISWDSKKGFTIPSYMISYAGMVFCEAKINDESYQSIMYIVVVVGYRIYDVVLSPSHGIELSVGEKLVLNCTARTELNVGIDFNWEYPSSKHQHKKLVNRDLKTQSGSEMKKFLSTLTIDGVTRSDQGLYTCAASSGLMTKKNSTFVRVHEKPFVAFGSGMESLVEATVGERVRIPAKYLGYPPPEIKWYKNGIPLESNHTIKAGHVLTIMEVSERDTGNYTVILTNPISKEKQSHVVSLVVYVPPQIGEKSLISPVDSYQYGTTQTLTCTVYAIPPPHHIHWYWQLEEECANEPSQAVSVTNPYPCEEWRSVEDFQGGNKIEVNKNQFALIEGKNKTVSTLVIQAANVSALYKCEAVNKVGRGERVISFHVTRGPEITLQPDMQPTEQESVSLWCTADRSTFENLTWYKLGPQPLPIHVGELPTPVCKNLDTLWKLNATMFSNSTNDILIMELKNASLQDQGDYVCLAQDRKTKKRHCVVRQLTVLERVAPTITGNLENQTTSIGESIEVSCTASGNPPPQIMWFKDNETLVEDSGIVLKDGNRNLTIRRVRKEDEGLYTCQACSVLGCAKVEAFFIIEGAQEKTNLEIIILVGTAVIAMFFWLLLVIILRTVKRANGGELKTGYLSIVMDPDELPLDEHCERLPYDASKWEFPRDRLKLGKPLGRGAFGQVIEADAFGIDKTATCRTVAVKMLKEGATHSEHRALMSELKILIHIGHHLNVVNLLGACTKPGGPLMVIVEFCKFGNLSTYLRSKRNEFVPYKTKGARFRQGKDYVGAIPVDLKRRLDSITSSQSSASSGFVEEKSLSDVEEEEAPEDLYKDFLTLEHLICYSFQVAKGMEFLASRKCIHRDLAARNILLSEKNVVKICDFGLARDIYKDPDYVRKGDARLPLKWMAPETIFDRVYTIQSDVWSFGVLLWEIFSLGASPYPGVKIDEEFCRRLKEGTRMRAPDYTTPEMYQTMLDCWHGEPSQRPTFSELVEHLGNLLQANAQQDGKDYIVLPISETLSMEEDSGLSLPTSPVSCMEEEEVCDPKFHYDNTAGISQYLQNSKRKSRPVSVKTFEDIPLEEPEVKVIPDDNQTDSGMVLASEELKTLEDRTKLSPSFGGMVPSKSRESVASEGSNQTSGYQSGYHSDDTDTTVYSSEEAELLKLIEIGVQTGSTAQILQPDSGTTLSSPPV

On to `CC(C)(C)c1nc(CON=Cc2ccn3c(-c4cccc(NC(=O)NCC(F)(F)F)c4)cnc3c2)no1` [Compound 1-14, 1-(3-{7-[(5-tert-Butyl-[1,2,4]oxadiazol-3-ylmethoxyimino)-methyl]-imidazo[1,2-a]pyridin-3-yl}-phenyl)-3-(2,2,2-trifluoro-ethyl)-urea], for which the results for the IC50 at FGFR3 and at VEGFR2 were 0.027 µM and 0.68 µM, respectively. Further, the inhibition at 3 µM in assay [1] (Mus musculus) is 43%. In addition, the GI50 at Ba/F3-TEL-FGFR3 cells was 560 nM.

Take `O=C(NCC(F)(F)F)Nc1cccc(-c2cnc3cc(C=NOCc4ccco4)ccn23)c1` [Compound 1-15, 1-(3-{7-[(Furan-2-ylmethoxyimino)-methyl]-imidazo[1,2-a]pyridin-3-yl}-phenyl)-3-(2,2,2-trifluoro-ethyl)-urea]: the results for the IC50 (at FGFR3; at VEGFR2; in assay [1]) were 0.026 µM, 0.98 µM and 4600 nM, respectively. Moreover, on Ba/F3-TEL-FGFR3 cells, the GI50 came to 43 nM.

Regarding `Nc1nc(CON=Cc2ccn3c(-c4cccc(NC(=O)NCC(F)(F)F)c4)cnc3c2)cs1` [Compound 1-16, 1-(3-{7-[(2-Amino-thiazol-4-ylmethoxyimino)-methyl]-imidazo[1,2-a]pyridin-3-yl}-phenyl)-3-(2,2,2-trifluoro-ethyl)-urea], the IC50 came to 0.018 µM at FGFR3 and 0.61 µM at VEGFR2. The inhibition at 10 µM in assay [1] (Mus musculus) amounted to 19%. Besides, on Ba/F3-TEL-FGFR3 cells, the GI50 was 1300 nM.

On to `Cc1cc(CON=Cc2ccn3c(-c4cccc(NC(=O)NCC(F)(F)F)c4)cnc3c2)no1` [Compound 1-17, 1-(3-{7-[(5-Methyl-isoxazol-3-ylmethoxyimino)-methyl]-imidazo[1,2-a]pyridin-3-yl}-phenyl)-3-(2,2,2-trifluoro-ethyl)-urea], for which the IC50 turned out to be 0.013 µM on FGFR3, 0.66 µM at VEGFR2 and 4100 nM in assay [1]. For the same molecule, the GI50 at Ba/F3-TEL-FGFR3 cells is 230 nM.

Regarding `O=C(NCC(F)(F)F)Nc1cccc(-c2cnc3cc(/C=N/OCCCO)ccn23)c1` [Compound 1-18, 1-(3-{7-[(3-Hydroxy-propoxyimino)-methyl]-imidazo[1,2-a]pyridin-3-yl}-phenyl)-3-(2,2,2-trifluoro-ethyl)-urea], the IC50 on FGFR3 was 0.019 µM; on VEGFR2, 0.4 µM; in assay [1] it was 4700 nM. In addition, the GI50 on Ba/F3-TEL-FGFR3 cells is 240 nM.

Consider `N=C(N)Nc1nc(CON=Cc2ccn3c(-c4cccc(NC(=O)NCC(F)(F)F)c4)cnc3c2)cs1` [Compound 1-19, 1-(3-{7-[(2-Guanidino-thiazol-4-ylmethoxyimino)-methyl]-imidazo[1,2-a]pyridin-3-yl}-phenyl)-3-(2,2,2-trifluoro-ethyl)-urea], for which the IC50 on FGFR3 came out at 0.023 µM; on VEGFR2, 0.67 µM; in assay [1] it was 5200 nM. In addition, the GI50 at Ba/F3-TEL-FGFR3 cells amounted to 2400 nM.

With `C/C(=N\O)c1ccn2c(-c3cccc(NC(=O)NCC(F)(F)F)c3)cnc2c1` [Compound 1-21, 1-[3-(7-{1-Hydroxyimino-ethyl}-imidazo[1,2-a]pyridin-3-yl)-phenyl]-3-(2,2,2-trifluoro-ethyl)-urea], the IC50 on FGFR3 is 0.0019 µM; at VEGFR2, 0.03 µM. In addition, in assay [1] (Mus musculus), the inhibition at 10 µM was 17%. For the same molecule, on Ba/F3-TEL-FGFR3 cells, the GI50 was determined as 46 nM.

In the case of `CON=C(c1ccn2c(-c3cccc(NC(=O)NCC(F)(F)F)c3)cnc2c1)C1CC1` [Compound 1-24, 1-[3-(7-{Cyclopropyl-methoxyimino-methyl}-imidazo[1,2-a]pyridin-3-yl)-phenyl]-3-(2,2,2-trifluoro-ethyl)-urea], the figures for the IC50 at FGFR3 and at VEGFR2 were 0.015 µM and 0.23 µM, respectively. Besides, the inhibition at 1 µM in assay [1] (Mus musculus, % at 1.00 μM) was determined as 38%. In addition, the GI50 at Ba/F3-TEL-FGFR3 cells is 260 nM.

Consider `CCC(=NOC)c1ccn2c(-c3cccc(NC(=O)NCC(F)(F)F)c3)cnc2c1` [Compound 1-25, 1-[3-(7-{1-Methoxyimino-propyl}-imidazo[1,2-a]pyridin-3-yl)-phenyl]-3-(2,2,2-trifluoro-ethyl)-urea], for which the results for the IC50 on FGFR3 and on VEGFR2 were 0.011 µM and 0.24 µM, respectively. Besides, the inhibition at 3 µM in assay [1] (Mus musculus) is 46%. Moreover, at Ba/F3-TEL-FGFR3 cells, the GI50 came to 320 nM.

Turning to `CCC(=NO)c1ccn2c(-c3cccc(NC(=O)NCC(F)(F)F)c3)cnc2c1` [Compound 1-26, 1-[3-(7-{1-Hydroxyimino-propyl}-imidazo[1,2-a]pyridin-3-yl)-phenyl]-3-(2,2,2-trifluoro-ethyl)-urea], the IC50 on FGFR3 was 0.0045 µM; at VEGFR2, 0.083 µM. Also, in assay [1] (Mus musculus), the inhibition at 10 µM was found to be 40%. On Ba/F3-TEL-FGFR3 cells, the GI50 was found to be 120 nM.

In the case of `CON=C(c1ccn2c(-c3cccc(NC(=O)NCC(F)(F)F)c3)cnc2c1)C1CCC1` [Compound 1-27, 1-[3-(7-{Cyclobutyl-methoxyimino-methyl}-imidazo[1,2-a]pyridin-3-yl)-phenyl]-3-(2,2,2-trifluoro-ethyl)-urea], the IC50 at FGFR3 came to 0.08 µM; on VEGFR2, 1.2 µM; in assay [1], 1500 nM. Besides, the GI50 at Ba/F3-TEL-FGFR3 cells amounted to 1300 nM.

For the molecule `O=C(NCC(F)(F)F)Nc1cccc(-c2cnc3cc(C(=NO)C4CCC4)ccn23)c1` [Compound 1-28, 1-[3-(7-{Cyclobutyl-hydroxyimino-methyl}-imidazo[1,2-a]pyridin-3-yl)-phenyl]-3-(2,2,2-trifluoro-ethyl)-urea], the IC50 at FGFR3 was 0.022 µM; on VEGFR2, 0.33 µM. Besides, the inhibition at 3 µM in assay [1] (Mus musculus) was 43%. In addition, on Ba/F3-TEL-FGFR3 cells, the GI50 is 570 nM.

For `CON=C(CC1CC1)c1ccn2c(-c3cccc(NC(=O)NCC(F)(F)F)c3)cnc2c1` [Compound 1-29, 1-[3-(7-{2-Cyclopropyl-1-methoxyimino-ethyl}-imidazo[1,2-a]pyridin-3-yl)-phenyl]-3-(2,2,2-trifluoro-ethyl)-urea], the IC50 was 0.059 µM at FGFR3 and above 1 µM at VEGFR2. In assay [1] (Mus musculus), the inhibition at 10 µM came out at 16%. For the same molecule, the “BaF3-TEL-FGFR3 prolif (μM)” value at Ba/F3-TEL-FGFR3 cells turned out to be 28.0% at.

On to `O=C(NCC(F)(F)F)Nc1cccc(-c2cnc3cc(C(CC4CC4)=NO)ccn23)c1` [Compound 1-30, 1-[3-(7-{2-Cyclopropyl-1-hydroxyimino-ethyl}-imidazo[1,2-a]pyridin-3-yl)-phenyl]-3-(2,2,2-trifluoro-ethyl)-urea], for which the IC50 on FGFR3 came to 0.019 µM; on VEGFR2, 0.29 µM. Further, the inhibition at 10 µM in assay [1] (Mus musculus) was 20%. In addition, the “BaF3-TEL-FGFR3 prolif (μM)” value at Ba/F3-TEL-FGFR3 cells is 43.0% at.

In the case of `CC(C)Oc1cc(NC(=O)NCC(F)(F)F)cc(-c2cnc3cc(/C(=N/O)C4CC4)ccn23)c1` [Compound 1-31, 1-[3-(7-{Cyclopropyl-hydroxyimino-methyl}-imidazo[1,2-a]pyridin-3-yl)-5-isopropoxy-phenyl]-3-(2,2,2-trifluoro-ethyl)-urea], the IC50 turned out to be 0.023 µM at FGFR3, 1.34 µM at VEGFR2 and 6200 nM in assay [1]. Also, on Ba/F3-TEL-FGFR3 cells, the GI50 came to 470 nM.

On to `O=C(NCC(F)(F)F)Nc1cccc(-c2cnc3cc(/C(=N/OCCO)C4CC4)ccn23)c1` [Compound 1-32, 1-[3-(7-{Cyclopropyl-[2-hydroxy-ethoxyimino]-methyl}-imidazo[1,2-a]pyridin-3-yl)-phenyl]-3-(2,2,2-trifluoro-ethyl)-urea], for which the IC50 at FGFR3 is 0.072 µM; at VEGFR2 it was 0.96 µM. For the same molecule, in assay [1] (Mus musculus), the inhibition at 10 µM was found to be 50%. Besides, the GI50 on Ba/F3-TEL-FGFR3 cells was determined as 1100 nM.

With `O=C(NCC(F)(F)F)Nc1cccc(-c2cnc3cc(/C(=N\OCCO)C4CC4)ccn23)c1` [Compound 1-33, 1-[3-(7-{Cyclopropyl-[2-hydroxy-ethoxyimino]-methyl}-imidazo[1,2-a]pyridin-3-yl)-phenyl]-3-(2,2,2-trifluoro-ethyl)-urea], the IC50 on FGFR3 was 0.018 µM; at VEGFR2, 0.18 µM; in assay [1], 11000 nM. The GI50 at Ba/F3-TEL-FGFR3 cells is 250 nM.
